# Measurements as given in patent US20230404995A1, “COMPOSITIONS AND METHODS FOR TREATING PULMONARY FIBROSIS” (priority 2020, published 2023).
# Columns and labels:
# [1] = system: WI-38 lung fibroblasts; assay: TGF-β induced collagen production in WI-38 lung fibroblasts (immunofluorescent imaging); format: cell-based; details: serum starved WI-38, TGF-β 5 ng/ml, 48 hours, quinacrine 2.5 μM; FIG. 2D
# Experimental: It is well established that during fibrotic diseases, fibroblasts and epithelial cells are transformed in myofibroblasts (mesenchymal cells), which secrete excess amount of extracellular matrix (ECM), one of the major components being interstitial collagen at the site of tissue injury. Serum starved WI-38 lung fibroblasts were activated with TGF-β (5 ng/ml; 48 hours), and QA's efficacy's in inhibiting collagen production due to transition of fibroblasts in collagen-secreting fibroblasts was tested.
# [2] = system: primary human bronchial epithelial (HBE) cells; assay: Cell viability of HBE cells (Cell Titer Blue cell viability kit); format: cell-based; details: QA 0.039-10 μM, 24 hours, FIG. 3
# Experimental: A cell viability study was carried out on HBE cells using Cell Titer Blue cell viability kit. Briefly, cells were treated with varying concentrations of QA (0.039-10 μM), for 24 hours, and media was used as a control. Fluorescence readings were taken at 540/590 nm using a Spark 10M Plate Reader (Tecan, Switzerland).
# [3] = system: HBE cells; assay: TGF-β induced epithelial-mesenchymal transition (EMT) in HBE cells, cell imaging; format: cell-based, human; details: TGF-β 10 ng/mL, QA 0.5, 1, 2.5 and 5 μM tested, 24 and 48 hours, FIG. 4
# Experimental: For TGF-β induced epithelial mesenchymal transition (EMT) images, HBE cells (50,000 cells/well) were seeded in a 6-well culture plate. Next day, all treatments (except the medium control) were starved with replacement of growth factor-absent media. After 24 hours incubation, the QA treatments were administered: 0.5, 1, 2.5, and 5 μM. Each treatment also included 10 ng/mL of TGF-β. The remaining 2 wells were treated with regular media and TGF-β as the negative control and positive control, respectively. Individual images of the cells were taken with an EVOS-FL Cell imaging fluorescence microscope (Thermo Fisher Scientific, Waltham, MA, USA) after 24 and 48 hours.
# EMT is presented by morphological changes following TGF-beta treatment, and subsequent reversal with QA treatment.
# [4] = system: WI-38 lung fibroblasts; assay: Growth factor induced hyper-proliferation of WI-38 lung fibroblasts
# [5] = system: A549 alveolar epithelial cells; assay: TGF-β induced epithelial-mesenchymal transition (EMT) in A549 cells: morphology and E-cadherin expression
smiles,measurement,setting,value
"CCN(CC)CCCC(C)Nc1c2ccc(Cl)cc2nc2ccc(OC)cc12 (stereo not shown) [QA, quinacrine]",collagen expression,[1],significantly reduced
same,cell viability,[2],> 85%
same,lowest concentrations that effectively inhibited TGF-beta induced EMT (morphological changes),[3],0.5-1 μM
same,FGF induced hyper-proliferation,"[4]; WI-38, FGF 10 ng/ml, 72 hours, FIG. 2C",dose-dependent reduction
same,PDGF-BB induced hyper-proliferation,"[4]; WI-38, PDGF-BB 10 ng/ml, 72 hours, FIG. 2B",dose-dependent reduction
same,fibroblast proliferation in the presence of TGF-β,"[4]; WI-38, TGF-β 10 ng/ml, 48 hours, FIG. 2A",dose-dependent reduction
same,viability (cytotoxicity of the QA doses used),"[4]; WI-38 lung fibroblasts, all doses of QA used in the proliferation study",> 90%
same,"E-cadherin expression, western blot (compared to β-actin)","[5]; A549 cells co-incubated with QA 2.5 μM and TGF-β 5 ng/ml, TGF-β alone gave 40% reduction, FIGS. 1C-D",completely restored
same,"E-cadherin expression, immunofluorescence","[5]; A549 cells, TGF-β 5 ng/ml, 48 h, simultaneous QA 2.5 μM, FIG. 1B",restored
same,"cell morphology, protection against TGF-β induced EMT","[5]; serum starved A549 cells, TGF-β 5 ng/ml with simultaneous QA 2.5 μM, FIG. 1A",reversing fibroblastic morphology induced by TGF-β treatment
